Literature values as cited in US20070098676A1, “FUNCTIONALLY DIVERSE MACROMOLECULES AND THEIR SYNTHESIS” (priority 2005, published 2007).

Tested on: RSV
Conditions: study conducted in 2001 (Huntley et al., 2002)

SMILES: NC(=O)CN(CC(N)=O)S(=O)(=O)c1cccc(Nc2nc(Nc3cccc(S(=O)(=O)N(CC(N)=O)CC(N)=O)c3)nc(Nc3ccc(-c4ccc(Nc5nc(Nc6cccc(S(=O)(=O)N(CC(N)=O)CC(N)=O)c6)nc(Nc6cccc(S(=O)(=O)N(CC(N)=O)CC(N)=O)c6)n5)cc4S(=O)(=O)O)c(S(=O)(=O)O)c3)n2)c1 [RFI-641]
- inhibition of RSV: potent and selective inhibitor of RSV
